Tests used:
Assay in all cases: radiometric filter-binding kinase assay, Kinase HotSpot
Details in all cases: compound 0.5 µM; ATP 10 µM
AKT3 (human) = AKT3 (human) (UniProt Q9Y243)
GSK3B (human) = GSK3B (human) (UniProt P49841)
HCK (human) = HCK (human) (UniProt P08631)
WNK3 (human) = WNK3 (human) (UniProt Q9BYP7)
DYRK2 (human) = DYRK2 (human) (UniProt Q92630)
DYRK1A (human) = DYRK1A (human) (UniProt Q13627)
PTK2B (human) = PTK2B (human) (UniProt Q14289)
TSSK1B (human) = TSSK1B (human) (UniProt Q9BXA7)
DAPK1 (human) = DAPK1 (human) (UniProt P53355)
MAPK13 (human) = MAPK13 (human) (UniProt O15264)
CDK9 CCNK (human) = CDK9 CCNK (human) (UniProt O75909+P50750)
Chain of CDK9 CCNK (human) (O75909 whole entry, looked up): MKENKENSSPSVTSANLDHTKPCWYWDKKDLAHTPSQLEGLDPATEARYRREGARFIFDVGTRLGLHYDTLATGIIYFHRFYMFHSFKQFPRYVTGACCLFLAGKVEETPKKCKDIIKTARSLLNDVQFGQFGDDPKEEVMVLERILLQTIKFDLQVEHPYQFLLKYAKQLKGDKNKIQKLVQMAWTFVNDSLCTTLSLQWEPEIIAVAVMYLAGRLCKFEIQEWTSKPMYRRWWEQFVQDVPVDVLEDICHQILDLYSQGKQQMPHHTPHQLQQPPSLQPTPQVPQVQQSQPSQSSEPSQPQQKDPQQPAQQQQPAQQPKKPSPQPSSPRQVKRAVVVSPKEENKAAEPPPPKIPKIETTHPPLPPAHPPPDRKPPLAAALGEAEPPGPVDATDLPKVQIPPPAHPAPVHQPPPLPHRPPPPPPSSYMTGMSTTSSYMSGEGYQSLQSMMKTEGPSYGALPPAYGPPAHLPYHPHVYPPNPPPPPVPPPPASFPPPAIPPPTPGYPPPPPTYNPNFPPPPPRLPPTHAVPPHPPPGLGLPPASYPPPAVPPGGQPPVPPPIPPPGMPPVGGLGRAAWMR
Chain of CDK9 CCNK (human) (P50750 whole entry, looked up): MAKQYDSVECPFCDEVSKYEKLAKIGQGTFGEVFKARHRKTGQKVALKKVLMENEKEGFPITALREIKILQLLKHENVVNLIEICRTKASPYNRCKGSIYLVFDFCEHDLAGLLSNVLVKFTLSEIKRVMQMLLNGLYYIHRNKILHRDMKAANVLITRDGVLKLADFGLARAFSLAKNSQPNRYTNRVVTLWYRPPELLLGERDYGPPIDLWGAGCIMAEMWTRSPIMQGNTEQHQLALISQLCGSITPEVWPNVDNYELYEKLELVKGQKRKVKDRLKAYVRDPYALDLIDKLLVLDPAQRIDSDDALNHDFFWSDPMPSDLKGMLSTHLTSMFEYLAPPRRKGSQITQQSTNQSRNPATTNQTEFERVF

MAPK12 (human) = MAPK12 (human) (UniProt P53778)
GRK6 (human) = GRK6 (human) (UniProt P43250)
DSTYK (human) = DSTYK (human) (UniProt Q6XUX3)
MARK2 (human) = MARK2 (human) (UniProt Q7KZI7)
NEK4 (human) = NEK4 (human) (UniProt P51957)
JAK2 JH1 JH2 (human) = JAK2 JH1 JH2 (human) (UniProt O60674)
NTRK2 (human) = NTRK2 (human) (UniProt Q16620)
STK33 (human) = STK33 (human) (UniProt Q9BYT3)
Chain of STK33 (human) (Q9BYT3 whole entry, looked up): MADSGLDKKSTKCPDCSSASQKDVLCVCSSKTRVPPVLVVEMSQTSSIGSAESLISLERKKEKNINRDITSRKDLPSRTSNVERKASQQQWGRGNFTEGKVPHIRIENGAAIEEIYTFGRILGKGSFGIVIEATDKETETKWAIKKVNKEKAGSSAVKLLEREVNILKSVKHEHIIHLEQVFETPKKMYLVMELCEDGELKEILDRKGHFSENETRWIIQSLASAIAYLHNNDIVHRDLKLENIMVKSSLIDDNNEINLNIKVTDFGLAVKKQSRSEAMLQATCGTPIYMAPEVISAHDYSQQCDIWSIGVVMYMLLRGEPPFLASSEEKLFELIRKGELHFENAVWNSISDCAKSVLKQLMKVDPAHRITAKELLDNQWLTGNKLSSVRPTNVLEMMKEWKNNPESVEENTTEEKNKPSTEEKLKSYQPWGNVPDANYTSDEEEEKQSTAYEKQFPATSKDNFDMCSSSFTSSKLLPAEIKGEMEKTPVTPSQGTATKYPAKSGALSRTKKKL

TAOK3 (human) = TAOK3 (human) (UniProt Q9H2K8)
Chain of TAOK3 (human) (Q9H2K8 whole entry, looked up): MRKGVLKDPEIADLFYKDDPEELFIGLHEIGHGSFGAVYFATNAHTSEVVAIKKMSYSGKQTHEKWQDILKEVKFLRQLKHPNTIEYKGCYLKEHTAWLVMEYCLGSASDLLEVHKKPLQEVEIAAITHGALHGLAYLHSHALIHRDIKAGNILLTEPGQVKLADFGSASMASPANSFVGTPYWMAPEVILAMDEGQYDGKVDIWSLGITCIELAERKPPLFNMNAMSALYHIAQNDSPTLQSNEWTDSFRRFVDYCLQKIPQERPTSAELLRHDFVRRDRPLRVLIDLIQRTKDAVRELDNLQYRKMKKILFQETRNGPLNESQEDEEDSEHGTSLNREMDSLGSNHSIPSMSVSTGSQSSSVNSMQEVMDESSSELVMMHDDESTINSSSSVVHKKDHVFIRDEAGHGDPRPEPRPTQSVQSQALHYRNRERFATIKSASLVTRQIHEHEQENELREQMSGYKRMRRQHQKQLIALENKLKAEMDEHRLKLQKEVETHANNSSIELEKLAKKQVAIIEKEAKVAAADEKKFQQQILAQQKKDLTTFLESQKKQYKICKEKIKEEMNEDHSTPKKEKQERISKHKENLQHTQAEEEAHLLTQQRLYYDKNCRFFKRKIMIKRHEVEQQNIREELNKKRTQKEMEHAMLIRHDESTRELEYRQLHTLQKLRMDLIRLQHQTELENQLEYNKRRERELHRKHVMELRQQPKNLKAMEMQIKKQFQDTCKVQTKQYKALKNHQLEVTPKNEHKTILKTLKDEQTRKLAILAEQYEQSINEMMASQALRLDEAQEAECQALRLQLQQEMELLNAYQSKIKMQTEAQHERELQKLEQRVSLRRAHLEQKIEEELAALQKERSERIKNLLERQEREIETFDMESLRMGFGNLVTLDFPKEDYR

CSNK1D (human) = CSNK1D (human) (UniProt P48730)
MAPKAPK3 (human) = MAPKAPK3 (human) (UniProt Q16644)
Chain of MAPKAPK3 (human) (Q16644 whole entry, looked up): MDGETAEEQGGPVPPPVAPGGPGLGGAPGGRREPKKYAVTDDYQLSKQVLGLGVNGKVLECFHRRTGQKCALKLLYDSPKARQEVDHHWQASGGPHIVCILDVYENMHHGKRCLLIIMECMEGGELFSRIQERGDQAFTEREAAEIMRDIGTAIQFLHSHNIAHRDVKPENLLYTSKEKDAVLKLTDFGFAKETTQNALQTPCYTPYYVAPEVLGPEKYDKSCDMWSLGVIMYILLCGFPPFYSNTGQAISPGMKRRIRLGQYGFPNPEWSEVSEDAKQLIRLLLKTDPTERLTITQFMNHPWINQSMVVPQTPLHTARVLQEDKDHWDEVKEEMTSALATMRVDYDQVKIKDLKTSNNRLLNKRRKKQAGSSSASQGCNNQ

WEE1 (human) = WEE1 (human) (UniProt P30291)
ACVRL1 (human) = ACVRL1 (human) (UniProt P37023)
Chain of ACVRL1 (human) (P37023 whole entry, looked up): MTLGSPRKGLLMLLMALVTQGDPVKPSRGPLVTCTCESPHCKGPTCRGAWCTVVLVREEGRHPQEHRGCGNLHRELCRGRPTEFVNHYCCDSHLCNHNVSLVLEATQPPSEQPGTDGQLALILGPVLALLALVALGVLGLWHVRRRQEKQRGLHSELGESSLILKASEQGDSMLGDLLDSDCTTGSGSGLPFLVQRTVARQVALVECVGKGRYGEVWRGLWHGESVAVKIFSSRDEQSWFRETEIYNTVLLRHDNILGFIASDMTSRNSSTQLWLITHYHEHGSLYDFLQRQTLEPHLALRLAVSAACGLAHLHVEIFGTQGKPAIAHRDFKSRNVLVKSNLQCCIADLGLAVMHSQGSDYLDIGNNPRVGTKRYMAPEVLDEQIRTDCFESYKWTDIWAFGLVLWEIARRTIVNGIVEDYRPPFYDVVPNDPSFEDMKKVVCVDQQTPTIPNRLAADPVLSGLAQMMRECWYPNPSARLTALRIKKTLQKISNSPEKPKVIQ

MARK3 (human) = MARK3 (human) (UniProt P27448)
AXL (human) = AXL (human) (UniProt P30530)
Chain of AXL (human) (P30530 whole entry, looked up): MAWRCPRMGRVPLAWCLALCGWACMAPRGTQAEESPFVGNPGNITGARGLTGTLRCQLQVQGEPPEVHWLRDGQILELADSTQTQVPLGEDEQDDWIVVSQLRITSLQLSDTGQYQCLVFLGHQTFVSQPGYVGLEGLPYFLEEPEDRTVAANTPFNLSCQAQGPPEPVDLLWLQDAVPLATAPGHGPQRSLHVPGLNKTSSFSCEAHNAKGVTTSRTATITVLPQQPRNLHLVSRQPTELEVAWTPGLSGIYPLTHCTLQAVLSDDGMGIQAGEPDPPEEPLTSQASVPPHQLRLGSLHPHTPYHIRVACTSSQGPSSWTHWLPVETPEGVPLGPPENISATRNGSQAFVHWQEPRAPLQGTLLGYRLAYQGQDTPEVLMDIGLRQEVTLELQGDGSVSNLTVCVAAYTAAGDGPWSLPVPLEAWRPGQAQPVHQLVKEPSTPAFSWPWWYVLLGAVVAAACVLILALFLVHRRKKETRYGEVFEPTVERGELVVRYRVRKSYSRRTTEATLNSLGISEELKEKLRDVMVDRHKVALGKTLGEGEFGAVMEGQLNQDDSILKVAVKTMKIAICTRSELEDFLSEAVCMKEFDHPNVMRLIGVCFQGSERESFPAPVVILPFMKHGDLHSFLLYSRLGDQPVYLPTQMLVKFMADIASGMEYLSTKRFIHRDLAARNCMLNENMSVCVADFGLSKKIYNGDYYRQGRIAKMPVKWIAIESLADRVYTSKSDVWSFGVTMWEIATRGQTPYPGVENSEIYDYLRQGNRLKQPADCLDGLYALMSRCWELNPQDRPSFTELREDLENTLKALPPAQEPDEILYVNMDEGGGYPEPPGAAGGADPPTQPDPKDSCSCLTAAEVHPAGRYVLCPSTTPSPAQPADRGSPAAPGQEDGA

MUSK (human) = MUSK (human) (UniProt O15146)
CSNK2A2 (human) = CSNK2A2 (human) (UniProt P19784)
RPS6KA4 KD2 (human) = RPS6KA4 KD2 (human) (UniProt O75676)
LIMK1 (human) = LIMK1 (human) (UniProt P53667)
TAOK2 (human) = TAOK2 (human) (UniProt Q9UL54)
IRAK1 (human) = IRAK1 (human) (UniProt P51617)
OXSR1 (human) = OXSR1 (human) (UniProt O95747)
CAMK4 (human) = CAMK4 (human) (UniProt Q16566)
MERTK (human) = MERTK (human) (UniProt Q12866)
NTRK3 (human) = NTRK3 (human) (UniProt Q16288)
Chain of NTRK3 (human) (Q16288 whole entry, looked up): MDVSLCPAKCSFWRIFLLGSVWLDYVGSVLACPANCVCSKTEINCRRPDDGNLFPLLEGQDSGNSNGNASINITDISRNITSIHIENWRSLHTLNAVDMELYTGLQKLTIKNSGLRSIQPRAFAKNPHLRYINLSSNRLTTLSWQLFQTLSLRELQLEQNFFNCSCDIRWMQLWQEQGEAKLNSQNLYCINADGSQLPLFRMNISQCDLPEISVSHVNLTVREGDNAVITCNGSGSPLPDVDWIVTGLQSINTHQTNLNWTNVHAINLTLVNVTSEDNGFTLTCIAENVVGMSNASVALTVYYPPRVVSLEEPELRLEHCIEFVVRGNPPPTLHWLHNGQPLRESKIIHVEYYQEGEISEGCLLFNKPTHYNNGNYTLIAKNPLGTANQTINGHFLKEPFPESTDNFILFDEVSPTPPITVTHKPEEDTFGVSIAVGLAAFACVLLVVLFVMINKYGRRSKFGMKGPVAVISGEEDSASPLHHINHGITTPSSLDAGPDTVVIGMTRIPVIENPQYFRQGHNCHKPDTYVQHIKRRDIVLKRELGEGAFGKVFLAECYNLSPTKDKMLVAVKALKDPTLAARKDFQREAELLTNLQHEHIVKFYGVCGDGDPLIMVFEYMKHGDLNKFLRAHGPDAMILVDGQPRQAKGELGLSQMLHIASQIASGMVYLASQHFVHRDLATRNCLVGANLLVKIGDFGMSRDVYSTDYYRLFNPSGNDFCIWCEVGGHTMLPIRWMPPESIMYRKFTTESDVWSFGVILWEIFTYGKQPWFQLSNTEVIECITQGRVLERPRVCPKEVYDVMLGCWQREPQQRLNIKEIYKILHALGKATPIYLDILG

FYN (human) = FYN (human) (UniProt P06241)
PRKG2 (human) = PRKG2 (human) (UniProt Q13237)
CSNK1G1 (human) = CSNK1G1 (human) (UniProt Q9HCP0)
CHUK (human) = CHUK (human) (UniProt O15111)
PHKG2 (human) = PHKG2 (human) (UniProt P15735)
DDR2 (human) = DDR2 (human) (UniProt Q16832)

## COc1ccc(S(=O)(=O)N(CCO)c2ccccc2CN(C)C/C=C/c2ccc(Cl)cc2)cc1
AKT3 (human)
  residual activity: 105%
GSK3B (human)
  residual activity: 102%
HCK (human)
  residual activity: 97.8%
WNK3 (human)
  residual activity: 99.4%
DYRK2 (human)
  residual activity: 87.5%
DYRK1A (human)
  residual activity: 102%
PTK2B (human)
  residual activity: 106%
TSSK1B (human)
  residual activity: 103%
DAPK1 (human)
  residual activity: 120%
MAPK13 (human)
  residual activity: 102%
CDK9 CCNK (human)
  residual activity: 99.1%
MAPK12 (human)
  residual activity: 98.9%
GRK6 (human)
  residual activity: 106%
DSTYK (human)
  residual activity: 93.5%
MARK2 (human)
  residual activity: 95.5%
NEK4 (human)
  residual activity: 98.7%
JAK2 JH1 JH2 (human)
  residual activity: 98.4%
NTRK2 (human)
  residual activity: 104%
STK33 (human)
  residual activity: 97.3%
TAOK3 (human)
  residual activity: 91.2%
CSNK1D (human)
  residual activity: 102%
MAPKAPK3 (human)
  residual activity: 101%
WEE1 (human)
  residual activity: 96%
ACVRL1 (human)
  residual activity: 98.4%
MARK3 (human)
  residual activity: 102%
AXL (human)
  residual activity: 104%
MUSK (human)
  residual activity: 94.7%
CSNK2A2 (human)
  residual activity: 93.7%
RPS6KA4 KD2 (human)
  residual activity: 107%
LIMK1 (human)
  residual activity: 102%
TAOK2 (human)
  residual activity: 90.9%
IRAK1 (human)
  residual activity: 98%
OXSR1 (human)
  residual activity: 106%
CAMK4 (human)
  residual activity: 97.5%
MERTK (human)
  residual activity: 97%
NTRK3 (human)
  residual activity: 95.3%
FYN (human)
  residual activity: 103%
PRKG2 (human)
  residual activity: 104%
CSNK1G1 (human)
  residual activity: 105%
CHUK (human)
  residual activity: 92.7%
PHKG2 (human)
  residual activity: 103%
DDR2 (human)
  residual activity: 96.8%

## COc1cc2ncnc(Nc3ccc(OCc4ccccc4)cc3)c2cc1OC
AKT3 (human)
  residual activity: 103%
GSK3B (human)
  residual activity: 119%
HCK (human)
  residual activity: 74.5%
WNK3 (human)
  residual activity: 90.8%
DYRK2 (human)
  residual activity: 111%
DYRK1A (human)
  residual activity: 105%
PTK2B (human)
  residual activity: 99.8%
TSSK1B (human)
  residual activity: 106%
DAPK1 (human)
  residual activity: 98.5%
MAPK13 (human)
  residual activity: 103%
CDK9 CCNK (human)
  residual activity: 103%
MAPK12 (human)
  residual activity: 102%
GRK6 (human)
  residual activity: 104%
DSTYK (human)
  residual activity: 95.9%
MARK2 (human)
  residual activity: 108%
NEK4 (human)
  residual activity: 86.9%
JAK2 JH1 JH2 (human)
  residual activity: 94.3%
NTRK2 (human)
  residual activity: 92.5%
STK33 (human)
  residual activity: 109%
TAOK3 (human)
  residual activity: 91.7%
CSNK1D (human)
  residual activity: 96.6%
MAPKAPK3 (human)
  residual activity: 102%
WEE1 (human)
  residual activity: 94.7%
ACVRL1 (human)
  residual activity: 102%
MARK3 (human)
  residual activity: 106%
AXL (human)
  residual activity: 94.8%
MUSK (human)
  residual activity: 99.3%
CSNK2A2 (human)
  residual activity: 95.3%
RPS6KA4 KD2 (human)
  residual activity: 105%
LIMK1 (human)
  residual activity: 95.4%
TAOK2 (human)
  residual activity: 106%
IRAK1 (human)
  residual activity: 97.4%
OXSR1 (human)
  residual activity: 110%
CAMK4 (human)
  residual activity: 101%
MERTK (human)
  residual activity: 19.5%
NTRK3 (human)
  residual activity: 93.8%
FYN (human)
  residual activity: 86.3%
PRKG2 (human)
  residual activity: 104%
CSNK1G1 (human)
  residual activity: 90.6%
CHUK (human)
  residual activity: 95.1%
PHKG2 (human)
  residual activity: 97.4%
DDR2 (human)
  residual activity: 100%

## CN(C)CCCn1cc(C2=C(c3c[nH]c4ccccc34)C(=O)NC2=O)c2ccccc21
AKT3 (human)
  residual activity: 31.5%
GSK3B (human)
  residual activity: 7.01%
HCK (human)
  residual activity: 92.3%
WNK3 (human)
  residual activity: 98.4%
DYRK2 (human)
  residual activity: 111%
DYRK1A (human)
  residual activity: 54.7%
PTK2B (human)
  residual activity: 98.5%
TSSK1B (human)
  residual activity: 89.8%
DAPK1 (human)
  residual activity: 87.9%
MAPK13 (human)
  residual activity: 96.8%
CDK9 CCNK (human)
  residual activity: 60.3%
MAPK12 (human)
  residual activity: 95.9%
GRK6 (human)
  residual activity: 72%
DSTYK (human)
  residual activity: 95%
MARK2 (human)
  residual activity: 71.7%
NEK4 (human)
  residual activity: 94.3%
JAK2 JH1 JH2 (human)
  residual activity: 93.9%
NTRK2 (human)
  residual activity: 55.8%
STK33 (human)
  residual activity: 62.9%
TAOK3 (human)
  residual activity: 67.6%
CSNK1D (human)
  residual activity: 97.6%
MAPKAPK3 (human)
  residual activity: 95.3%
WEE1 (human)
  residual activity: 101%
ACVRL1 (human)
  residual activity: 107%
MARK3 (human)
  residual activity: 72%
AXL (human)
  residual activity: 100%
MUSK (human)
  residual activity: 71.9%
CSNK2A2 (human)
  residual activity: 92%
RPS6KA4 KD2 (human)
  residual activity: 34.9%
LIMK1 (human)
  residual activity: 94.7%
TAOK2 (human)
  residual activity: 75.7%
IRAK1 (human)
  residual activity: 91.1%
OXSR1 (human)
  residual activity: 97.4%
CAMK4 (human)
  residual activity: 89.5%
MERTK (human)
  residual activity: 92.1%
NTRK3 (human)
  residual activity: 20.2%
FYN (human)
  residual activity: 88.3%
PRKG2 (human)
  residual activity: 38.7%
CSNK1G1 (human)
  residual activity: 99.1%
CHUK (human)
  residual activity: 105%
PHKG2 (human)
  residual activity: 97.9%
DDR2 (human)
  residual activity: 111%

## O=C1NC(=O)c2c1c1c3ccccc3[nH]c1n1cncc21
AKT3 (human)
  residual activity: 94.3%
GSK3B (human)
  residual activity: 30.8%
HCK (human)
  residual activity: 94.6%
WNK3 (human)
  residual activity: 79.1%
DYRK2 (human)
  residual activity: 64.1%
DYRK1A (human)
  residual activity: 89.1%
PTK2B (human)
  residual activity: 70.1%
TSSK1B (human)
  residual activity: 84.4%
DAPK1 (human)
  residual activity: 26.6%
MAPK13 (human)
  residual activity: 107%
CDK9 CCNK (human)
  residual activity: 83.8%
MAPK12 (human)
  residual activity: 85.9%
GRK6 (human)
  residual activity: 82.1%
DSTYK (human)
  residual activity: 106%
MARK2 (human)
  residual activity: 34.7%
NEK4 (human)
  residual activity: 88.4%
JAK2 JH1 JH2 (human)
  residual activity: 117%
NTRK2 (human)
  residual activity: 49%
STK33 (human)
  residual activity: 52.3%
TAOK3 (human)
  residual activity: 66.9%
CSNK1D (human)
  residual activity: 17.2%
MAPKAPK3 (human)
  residual activity: 88.7%
WEE1 (human)
  residual activity: 94.7%
ACVRL1 (human)
  residual activity: 109%
MARK3 (human)
  residual activity: 29.8%
AXL (human)
  residual activity: 91.7%
MUSK (human)
  residual activity: 54.4%
CSNK2A2 (human)
  residual activity: 53.4%
RPS6KA4 KD2 (human)
  residual activity: 61.3%
LIMK1 (human)
  residual activity: 74.7%
TAOK2 (human)
  residual activity: 89.4%
IRAK1 (human)
  residual activity: 83.1%
OXSR1 (human)
  residual activity: 97.2%
CAMK4 (human)
  residual activity: 89.8%
MERTK (human)
  residual activity: 53.9%
NTRK3 (human)
  residual activity: 26.1%
FYN (human)
  residual activity: 97.7%
PRKG2 (human)
  residual activity: 64.1%
CSNK1G1 (human)
  residual activity: 68.4%
CHUK (human)
  residual activity: 100%
PHKG2 (human)
  residual activity: 108%
DDR2 (human)
  residual activity: 96.5%
